Results from article PMC3293179 (MedChemComm, 2011).
Values belong to the compound of their own block, whether it stands above or below them.

How the values were obtained:
[1] = molecular target: T1, TSHR (Homo sapiens, UniProt P16473); settings: cited from earlier work
[2] = degradation at pH = 2; cited from earlier work
[3] = tested on: TSHR; settings: mice; cited from earlier work
[4] = molecular target: T1, TSHR; assay: ELISA cAMP assay in HEK-EM293 cells expressing TSHR; format: cell-based; settings: for fold more potent than the hit compound 1a: potency ratio versus 1a
[5] = molecular target: T2, FSHR (Homo sapiens, UniProt P23945); assay: Selectivity test against FSHR; format: cell-based
T2 sequence (P23945 18-695): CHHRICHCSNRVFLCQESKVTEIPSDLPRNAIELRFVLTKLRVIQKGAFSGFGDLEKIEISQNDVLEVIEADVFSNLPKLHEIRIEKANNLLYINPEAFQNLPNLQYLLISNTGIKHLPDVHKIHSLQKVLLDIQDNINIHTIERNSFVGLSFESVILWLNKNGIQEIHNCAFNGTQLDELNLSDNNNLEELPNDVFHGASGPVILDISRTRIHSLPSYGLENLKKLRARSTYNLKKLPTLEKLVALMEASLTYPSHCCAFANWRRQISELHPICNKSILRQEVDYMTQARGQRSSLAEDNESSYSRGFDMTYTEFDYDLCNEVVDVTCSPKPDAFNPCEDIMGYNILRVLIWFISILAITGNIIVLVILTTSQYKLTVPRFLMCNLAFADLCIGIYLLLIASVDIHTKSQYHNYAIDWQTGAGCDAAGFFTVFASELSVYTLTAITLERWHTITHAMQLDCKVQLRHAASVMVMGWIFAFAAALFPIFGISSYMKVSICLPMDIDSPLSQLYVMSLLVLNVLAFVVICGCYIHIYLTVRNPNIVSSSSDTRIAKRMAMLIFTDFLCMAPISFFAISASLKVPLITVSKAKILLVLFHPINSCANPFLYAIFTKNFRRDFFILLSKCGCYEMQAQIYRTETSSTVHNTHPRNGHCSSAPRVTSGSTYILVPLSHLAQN

[6] = molecular target: LHR (Homo sapiens, UniProt P22888); assay: Selectivity test against LHR; format: cell-based
Chain of LHR (P22888 27-699): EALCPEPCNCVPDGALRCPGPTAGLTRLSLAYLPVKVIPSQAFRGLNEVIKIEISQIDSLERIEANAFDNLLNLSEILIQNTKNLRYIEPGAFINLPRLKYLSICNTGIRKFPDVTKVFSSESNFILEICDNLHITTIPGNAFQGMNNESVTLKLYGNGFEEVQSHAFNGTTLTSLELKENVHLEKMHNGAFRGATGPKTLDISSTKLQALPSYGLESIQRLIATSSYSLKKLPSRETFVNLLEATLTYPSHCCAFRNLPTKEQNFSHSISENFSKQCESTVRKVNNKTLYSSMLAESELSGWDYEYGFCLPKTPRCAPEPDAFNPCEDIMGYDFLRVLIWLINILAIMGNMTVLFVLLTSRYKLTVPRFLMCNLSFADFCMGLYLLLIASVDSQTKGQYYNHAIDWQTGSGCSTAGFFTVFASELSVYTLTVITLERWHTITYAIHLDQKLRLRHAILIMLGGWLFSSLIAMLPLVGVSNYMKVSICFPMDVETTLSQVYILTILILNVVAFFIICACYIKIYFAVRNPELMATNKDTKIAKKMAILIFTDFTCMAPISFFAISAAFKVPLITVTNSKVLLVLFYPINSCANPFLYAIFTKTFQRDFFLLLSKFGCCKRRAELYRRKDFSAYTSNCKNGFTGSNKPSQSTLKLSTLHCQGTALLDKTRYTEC

T1 sequence (P16473 21-764): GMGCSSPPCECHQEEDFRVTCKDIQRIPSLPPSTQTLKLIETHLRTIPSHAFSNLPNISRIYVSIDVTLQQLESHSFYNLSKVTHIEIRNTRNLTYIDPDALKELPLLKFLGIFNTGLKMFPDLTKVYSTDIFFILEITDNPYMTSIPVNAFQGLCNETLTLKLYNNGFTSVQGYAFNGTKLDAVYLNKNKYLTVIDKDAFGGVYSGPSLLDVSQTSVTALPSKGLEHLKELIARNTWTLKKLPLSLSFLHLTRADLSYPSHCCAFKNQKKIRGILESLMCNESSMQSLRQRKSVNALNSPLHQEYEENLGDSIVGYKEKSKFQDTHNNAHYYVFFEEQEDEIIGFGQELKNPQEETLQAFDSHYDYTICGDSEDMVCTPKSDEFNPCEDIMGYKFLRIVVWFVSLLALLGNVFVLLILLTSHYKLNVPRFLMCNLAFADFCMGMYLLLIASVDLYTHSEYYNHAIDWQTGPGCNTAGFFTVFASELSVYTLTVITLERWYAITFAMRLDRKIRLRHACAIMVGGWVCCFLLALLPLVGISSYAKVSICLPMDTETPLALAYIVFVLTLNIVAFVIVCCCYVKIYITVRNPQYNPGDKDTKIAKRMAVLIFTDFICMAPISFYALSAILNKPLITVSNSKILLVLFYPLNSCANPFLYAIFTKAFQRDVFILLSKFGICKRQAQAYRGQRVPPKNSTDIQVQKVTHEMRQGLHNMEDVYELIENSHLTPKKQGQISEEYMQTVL

- fold increase in potency ([4]; Y oxygen replaced with sulfur (8b vs 1b, 8a vs 1g)): ≤ 5 fold
Compound: COc1ccc(C2Nc3cccc(O)c3C(=O)N2Cc2ccccc2)cc1CSc1ccc(NC(C)=O)cc1 (stereo not shown) [Compound 8b]
- selectivity for TSHR over FSHR [5]: maintain selectivity for TSHR over LHR and FSHR
- selectivity for TSHR over LHR [6]: maintain selectivity for TSHR over LHR and FSHR

- selectivity for TSHR over FSHR [5]: selective for TSHR over LHR and FSHR
- selectivity for TSHR over LHR [6]: selective for TSHR over LHR and FSHR
Compound: COc1ccc(-c2nc3cccc(O)c3c(=O)n2Cc2ccccc2)cc1COc1ccc(NC(C)=O)cc1 [Compound 9c]

- fold more potent than the hit compound 1a [4]: at least 10 fold
Compound: COc1ccc(C2Nc3ccccc3C(=O)N2Cc2ccccc2)cc1CSc1ccc(NC(C)=O)cc1 (stereo not shown) [Compound 8a]

Second part, the compound before the results:

Compound: COc1ccc(C2Nc3cccc(O)c3C(=O)N2Cc2ccccc2)cc1COc1ccc(NC(C)=O)cc1 (stereo not shown) [Compound 1b]
- TSHR agonism (type) [1]: full TSHR agonist
- half-life [2]: 3 h
- in vivo efficacy [3]: in vivo efficacy in mice
- Emax ([4]; HEK-EM293): 100%
- fold improvement in potency ([4]; R2 OH versus H (1g) or F (1e)): 3 fold
- fold more potent than the hit compound 1a [4]: at least 10 fold

Compound: COc1ccc(C2Nc3ccccc3C(=O)N2Cc2ccccc2)cc1COc1ccc(NC(C)=O)cc1 (stereo not shown) [Compound 1g]
- fold more potent than the hit compound 1a [4]: 4 fold

Compound: COc1ccc(C2Nc3ccccc3C(=O)N2Cc2ccco2)cc1COc1ccc(NC(C)=O)cc1 (stereo not shown) [Compound 1a]
- FSHR efficacy [5]: no detectable
- LHR efficacy [6]: no detectable

Compound: COc1ccc(C2Nc3ccccc3C(=O)N2CCc2ccccc2)cc1COc1ccc(NC(C)=O)cc1 (stereo not shown) [Compound 1m]
- fold reduction in potency ([4]; versus benzyl analogue 1g): 2 fold
